Test results published in PubChem BioAssay (NCI).
“And” between values parts separate entries of the source, which are not always exact repeats. Equal entries are not always repeated.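 48-hour exposure; five concentrations; linearly interpolated endpoints. Abbreviation: GI50, concentration required for 50% inhibition of growth. The concentration for full growth arrest is given as TGI.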

Assays:
Assay in all cases: NCI-60 cell line screen, 48 h
M14 melanoma = system: M14 melanoma
OVCAR-4 ovarian = system: OVCAR-4 ovarian
SF-268 CNS = system: SF-268 CNS
HCT-15 colon = system: HCT-15 colon
K-562 leukemia = system: K-562 leukemia
OVCAR-8 ovarian = system: OVCAR-8 ovarian
NCI-H226 lung = system: NCI-H226 lung
NCI-H522 lung = system: NCI-H522 lung
A549 NSCLC = system: A549 NSCLC
NCI-H23 lung = system: NCI-H23 lung

COc1ccc(Cn2c(Br)c3c(c2-c2cc(OC)c(OC)c(OC)c2)CCc2sc(NC(C)=O)nc2-3)cc1
GI50 (M14 melanoma): 3.57 µM | TGI (M14 melanoma): > 100 µM | GI50 (OVCAR-4 ovarian): 3.49 µM | TGI (OVCAR-4 ovarian): > 100 µM | GI50 (SF-268 CNS): 6.15 µM | TGI (SF-268 CNS): > 100 µM | GI50 (HCT-15 colon): 3.12 µM | TGI (HCT-15 colon): 32.2 µM | GI50 (K-562 leukemia): 3.67 µM | TGI (K-562 leukemia): > 100 µM | GI50 (OVCAR-8 ovarian): 4.7 µM | TGI (OVCAR-8 ovarian): > 100 µM | GI50 (NCI-H226 lung): 39.3 µM | TGI (NCI-H226 lung): > 100 µM | GI50 (NCI-H522 lung): 2.17 µM | TGI (NCI-H522 lung): 9.22 µM | GI50 (A549 NSCLC): 3.92 µM | TGI (A549 NSCLC): > 100 µM | GI50 (NCI-H23 lung): 8.6 µM | TGI (NCI-H23 lung): > 100 µM

COC(=O)NN1C(C)=C(C(=O)OC)C2(CCOC2=O)C1(C)O (configuration not stated)
TGI (M14 melanoma): > 100 µM | TGI (OVCAR-4 ovarian): > 100 µM | TGI (SF-268 CNS): > 100 µM | TGI (HCT-15 colon): > 100 µM | TGI (K-562 leukemia): > 100 µM | TGI (OVCAR-8 ovarian): > 100 µM | TGI (NCI-H226 lung): > 100 µM | TGI (NCI-H522 lung): > 100 µM | TGI (A549 NSCLC): > 100 µM | TGI (NCI-H23 lung): > 100 µM

O=C(Nc1ccc(Br)cc1F)c1cc(Br)ccc1O
GI50 (M14 melanoma): 0.713 µM | TGI (M14 melanoma): 5.48 µM | GI50 (OVCAR-4 ovarian): 0.604 µM | TGI (OVCAR-4 ovarian): 25.3 µM | GI50 (SF-268 CNS): 0.716 µM | TGI (SF-268 CNS): 11.6 µM | GI50 (HCT-15 colon): 0.731 µM | TGI (HCT-15 colon): 7.32 µM | GI50 (K-562 leukemia): 0.453 µM | TGI (K-562 leukemia): > 35.9 µM | GI50 (OVCAR-8 ovarian): 0.959 µM | TGI (OVCAR-8 ovarian): 15.4 µM | GI50 (NCI-H226 lung): 0.688 µM | TGI (NCI-H226 lung): 7.76 µM | GI50 (NCI-H522 lung): 0.344 µM | TGI (NCI-H522 lung): 5.38 µM | GI50 (A549 NSCLC): 2.11 µM | TGI (A549 NSCLC): 16.4 µM | GI50 (NCI-H23 lung): 0.396 µM | TGI (NCI-H23 lung): 3.62 µM

CC(=O)OCC1OC(n2c(-c3ccccc3)c(C)c(C)c(C#N)c2=S)C(OC(C)=O)C(OC(C)=O)C1OC(C)=O (configuration not stated)
GI50 (M14 melanoma): 15.4 µM and 35 µM | TGI (M14 melanoma): > 100 µM | GI50 (OVCAR-4 ovarian): 14.8 µM and 76.1 µM | TGI (OVCAR-4 ovarian): 34.1 µM and > 100 µM | GI50 (SF-268 CNS): 18.3 µM and 93.3 µM | TGI (SF-268 CNS): > 100 µM | TGI (HCT-15 colon): > 100 µM | GI50 (K-562 leukemia): 24.8 µM and > 100 µM | TGI (K-562 leukemia): > 100 µM | GI50 (OVCAR-8 ovarian): 17.6 µM and > 100 µM | TGI (OVCAR-8 ovarian): > 100 µM | TGI (NCI-H226 lung): > 100 µM | TGI (NCI-H522 lung): > 100 µM | GI50 (A549 NSCLC): 25.7 µM and > 100 µM | TGI (A549 NSCLC): > 100 µM | GI50 (NCI-H23 lung): 32.9 µM and 16.3 µM | TGI (NCI-H23 lung): > 50 µM and 54.7 µM
